Tested on: 156681-154-R-J1 tumor spheroid viability
Assay: Anticancer human tumor 156681-154-R-J1 patient-derived melanoma cell line growth inhibition
Conditions: spheroids with HUVEC and MSC; for IC50: curve of first compound; for viability, T/C: stronger effect = lower value
Outline: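 Single agents and combinations were tested on spheroids built from tumor cells plus HUVEC and hMSC, at half-log dilutions starting at or near clinical Cmax, else 10 microM; final DMSO 0.25% (v/v).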

[1] = second compound 1 µM, first compound 0.0316 µM
[2] = second compound 1 µM, first compound 0.1 µM
[3] = second compound 1 µM, first compound 0.316 µM
[4] = second compound 1 µM, first compound 1 µM
[5] = second compound 1 µM, first compound 3.16 µM
[6] = second compound 1 µM, first compound 10 µM
[7] = second compound 3.16 µM, first compound 0.0316 µM
[8] = second compound 3.16 µM, first compound 0.1 µM
[9] = second compound 3.16 µM, first compound 0.316 µM
[10] = second compound 3.16 µM, first compound 1 µM
[11] = second compound 3.16 µM, first compound 3.16 µM
[12] = second compound 3.16 µM, first compound 10 µM
[13] = second compound 10 µM, first compound 0.0316 µM
[14] = second compound 10 µM, first compound 0.1 µM
[15] = second compound 10 µM, first compound 0.316 µM
[16] = second compound 10 µM, first compound 1 µM
[17] = second compound 10 µM, first compound 3.16 µM
[18] = second compound 10 µM, first compound 10 µM
[19] = second compound 31.6 µM, first compound 0.0316 µM
[20] = second compound 31.6 µM, first compound 0.1 µM
[21] = second compound 31.6 µM, first compound 0.316 µM
[22] = second compound 31.6 µM, first compound 1 µM
[23] = second compound 31.6 µM, first compound 3.16 µM
[24] = second compound 31.6 µM, first compound 10 µM
[25] = second compound 100 µM, first compound 0.0316 µM
[26] = second compound 100 µM, first compound 0.1 µM
[27] = second compound 100 µM, first compound 0.316 µM
[28] = second compound 100 µM, first compound 1 µM
[29] = second compound 100 µM, first compound 3.16 µM
[30] = second compound 100 µM, first compound 10 µM
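Note: spheroids exposed to compounds for 7 days before readout.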
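Throughout, for viability, T/C: percent of vehicle control viability where 100% = DMSO-treated spheroids.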

With `CC(C)n1c(=O)n(C)c2cnc3cc(F)c(-c4ccc(OCCCN5CCCCC5)nc4)cc3c21` + Cn1nnc2c(C(N)=O)ncn2c1=O the IC50 (second compound 1 µM) was greater than 10 µM, the IC50 (second compound 3.16 µM) was greater than 10 µM and the IC50 (second compound 10 µM) was greater than 10 µM. The IC50 (second compound 31.6 µM) was less than 0.0316 µM, the IC50 (second compound 100 µM) was less than 0.0316 µM and the viability, T/C [1] was 116%. The viability, T/C [2] was 122%, the viability, T/C [3] was 110% and the viability, T/C [4] was 104%. The viability, T/C [5] was 108%, the viability, T/C [6] was 95.1% and the viability, T/C [7] was 85.2%. For the same molecule, the viability, T/C [8] was 83%, the viability, T/C [9] was 111% and the viability, T/C [10] was 123%. It also gave a viability, T/C [11] of 98.9%, a viability, T/C [12] of 71.4% and a viability, T/C [13] of 78.5%. For the same molecule, the viability, T/C [14] was 63.5%, the viability, T/C [15] was 70.8% and the viability, T/C [16] was 72.4%. It also gave a viability, T/C [17] of 75.5%, a viability, T/C [18] of 64.1% and a viability, T/C [19] of 47.2%. For the same molecule, the viability, T/C [20] was 54.5%, the viability, T/C [21] was 53% and the viability, T/C [22] was 48.3%. The viability, T/C [23] was 52%, the viability, T/C [24] was 55.8% and the viability, T/C [25] was 51.9%. For the same molecule, the viability, T/C [26] was 43.3%, the viability, T/C [27] was 46.8% and the viability, T/C [28] was 48.2%. The viability, T/C [29] was 49.5% and the viability, T/C [30] was 43.4%.
Work on `CC1COCCN1c1cc(-c2ccnn2C)c2ccnc(-c3ccn[nH]3)c2n1` (stereo not given) + Cn1nnc2c(C(N)=O)ncn2c1=O yielded an IC50 (second compound 1 µM) of 0.0907 µM, an IC50 (second compound 3.16 µM) of 0.0898 µM and an IC50 (second compound 10 µM) of 0.0443 µM. It also gave an IC50 (second compound 31.6 µM) of less than 0.0316 µM, an IC50 (second compound 100 µM) of less than 0.0316 µM and a viability, T/C [1] of 66.7%. For the same molecule, the viability, T/C [2] was 48.5%, the viability, T/C [3] was 32.1% and the viability, T/C [4] was 24.1%. For the same molecule, the viability, T/C [5] was 22.5%, the viability, T/C [6] was 20.2% and the viability, T/C [7] was 73.5%. It also gave a viability, T/C [8] of 47.7%, a viability, T/C [9] of 26.1% and a viability, T/C [10] of 21.3%. The viability, T/C [11] was 20.2%, the viability, T/C [12] was 18% and the viability, T/C [13] was 54.4%. It also gave a viability, T/C [14] of 39.3%, a viability, T/C [15] of 23.2% and a viability, T/C [16] of 19.2%. The viability, T/C [17] was 21.9%, the viability, T/C [18] was 15.6% and the viability, T/C [19] was 38%. It also gave a viability, T/C [20] of 31.4%, a viability, T/C [21] of 18.6% and a viability, T/C [22] of 20.2%. The viability, T/C [23] was 21.8%, the viability, T/C [24] was 16.2% and the viability, T/C [25] was 23.6%. The viability, T/C [26] was 17.1%, the viability, T/C [27] was 12.6% and the viability, T/C [28] was 15.3%. For the same molecule, the viability, T/C [29] was 16% and the viability, T/C [30] was 17%.
With `COc1cc(C)[nH]c(=O)c1CN1CCc2c(Cl)cc(C(OC)C3COC3)c(Cl)c2C1=O` (stereo not given) + Cn1nnc2c(C(N)=O)ncn2c1=O the IC50 (second compound 1 µM) was greater than 10 µM, the IC50 (second compound 3.16 µM) was greater than 10 µM and the IC50 (second compound 10 µM) was greater than 10 µM. It also gave an IC50 (second compound 31.6 µM) greater than 10 µM, an IC50 (second compound 100 µM) greater than 10 µM and a viability, T/C [1] of 115%. It also gave a viability, T/C [2] of 103%, a viability, T/C [3] of 116% and a viability, T/C [4] of 115%. For the same molecule, the viability, T/C [5] was 81.2%, the viability, T/C [6] was 88.5% and the viability, T/C [7] was 107%. It also gave a viability, T/C [8] of 144%, a viability, T/C [9] of 90.7% and a viability, T/C [10] of 74.9%. For the same molecule, the viability, T/C [11] was 127%, the viability, T/C [12] was 130% and the viability, T/C [13] was 84.5%. The viability, T/C [14] was 81%, the viability, T/C [15] was 77.7% and the viability, T/C [16] was 75.2%. The viability, T/C [17] was 98.7%, the viability, T/C [18] was 67% and the viability, T/C [19] was 70.2%. The viability, T/C [20] was 56.7%, the viability, T/C [21] was 60.4% and the viability, T/C [22] was 58.4%. It also gave a viability, T/C [23] of 54%, a viability, T/C [24] of 65.7% and a viability, T/C [25] of 45%. The viability, T/C [26] was 66%, the viability, T/C [27] was 51.7% and the viability, T/C [28] was 62.9%. The viability, T/C [29] was 68.7% and the viability, T/C [30] was 61.4%.
`COc1ccc([C@@H](O)c2cc(-c3ncnc4cc(N5CCOCC5)ccc34)c(F)cc2Cl)nn1` + Cn1nnc2c(C(N)=O)ncn2c1=O gave an IC50 (second compound 1 µM) greater than 10 µM, an IC50 (second compound 3.16 µM) greater than 10 µM and an IC50 (second compound 10 µM) of 7.33 µM. For the same molecule, the IC50 (second compound 31.6 µM) was greater than 10 µM, the IC50 (second compound 100 µM) was greater than 10 µM and the viability, T/C [1] was 104%. For the same molecule, the viability, T/C [2] was 98.4%, the viability, T/C [3] was 86% and the viability, T/C [4] was 70.5%. The viability, T/C [5] was 72.2%, the viability, T/C [6] was 53.3% and the viability, T/C [7] was 101%. It also gave a viability, T/C [8] of 111%, a viability, T/C [9] of 77.7% and a viability, T/C [10] of 79.1%. For the same molecule, the viability, T/C [11] was 62%, the viability, T/C [12] was 54.8% and the viability, T/C [13] was 71.5%. For the same molecule, the viability, T/C [14] was 85.4%, the viability, T/C [15] was 73.8% and the viability, T/C [16] was 66.2%. For the same molecule, the viability, T/C [17] was 70.7%, the viability, T/C [18] was 42.9% and the viability, T/C [19] was 60%. For the same molecule, the viability, T/C [20] was 67.3%, the viability, T/C [21] was 71.8% and the viability, T/C [22] was 47.2%. For the same molecule, the viability, T/C [23] was 77.4%, the viability, T/C [24] was 45.2% and the viability, T/C [25] was 55%. The viability, T/C [26] was 55.7%, the viability, T/C [27] was 48.1% and the viability, T/C [28] was 64.4%. The viability, T/C [29] was 54.7% and the viability, T/C [30] was 48.4%.
Work on `Cc1cc(C)c(CNC(=O)c2cc(-c3ccc(CN4CCOCC4)cc3)cc3c2cnn3C2CCCC2)c(=O)[nH]1` + Cn1nnc2c(C(N)=O)ncn2c1=O yielded an IC50 (second compound 1 µM) greater than 10 µM, an IC50 (second compound 3.16 µM) greater than 10 µM and an IC50 (second compound 10 µM) greater than 10 µM. It also gave an IC50 (second compound 31.6 µM) greater than 10 µM, an IC50 (second compound 100 µM) greater than 10 µM and a viability, T/C [1] of 72.6%. It also gave a viability, T/C [2] of 107%, a viability, T/C [3] of 90.2% and a viability, T/C [4] of 92.4%. The viability, T/C [5] was 79.6%, the viability, T/C [6] was 82.4% and the viability, T/C [7] was 90.6%. It also gave a viability, T/C [8] of 72.7%, a viability, T/C [9] of 83.7% and a viability, T/C [10] of 87.2%. It also gave a viability, T/C [11] of 68.8%, a viability, T/C [12] of 84.4% and a viability, T/C [13] of 105%. For the same molecule, the viability, T/C [14] was 73.3%, the viability, T/C [15] was 72.4% and the viability, T/C [16] was 67.1%. For the same molecule, the viability, T/C [17] was 69.2%, the viability, T/C [18] was 77.5% and the viability, T/C [19] was 74.2%. The viability, T/C [20] was 65.7%, the viability, T/C [21] was 50.5% and the viability, T/C [22] was 63%. The viability, T/C [23] was 51.9%, the viability, T/C [24] was 58.4% and the viability, T/C [25] was 51.2%. The viability, T/C [26] was 61.9%, the viability, T/C [27] was 67.2% and the viability, T/C [28] was 52.3%. It also gave a viability, T/C [29] of 56% and a viability, T/C [30] of 55.6%.
Work on `[2H]c1nc(C)nc([2H])c1-c1cc(NC[C@@H](C)c2cccc3c(C(=O)NC)ccnc23)ncn1` + Cn1nnc2c(C(N)=O)ncn2c1=O yielded an IC50 (second compound 1 µM) greater than 10 µM, an IC50 (second compound 3.16 µM) greater than 10 µM and an IC50 (second compound 10 µM) greater than 10 µM. The IC50 (second compound 31.6 µM) was greater than 10 µM, the IC50 (second compound 100 µM) was 2.47 µM and the viability, T/C [1] was 117%. The viability, T/C [2] was 107%, the viability, T/C [3] was 104% and the viability, T/C [4] was 83.8%. It also gave a viability, T/C [5] of 92.8%, a viability, T/C [6] of 82.4% and a viability, T/C [7] of 71.8%. It also gave a viability, T/C [8] of 101%, a viability, T/C [9] of 114% and a viability, T/C [10] of 112%. For the same molecule, the viability, T/C [11] was 120%, the viability, T/C [12] was 87.4% and the viability, T/C [13] was 80%. It also gave a viability, T/C [14] of 69.7%, a viability, T/C [15] of 59.7% and a viability, T/C [16] of 63.8%. The viability, T/C [17] was 73.3%, the viability, T/C [18] was 64.9% and the viability, T/C [19] was 54.9%. The viability, T/C [20] was 58.6%, the viability, T/C [21] was 48.7% and the viability, T/C [22] was 47.9%. For the same molecule, the viability, T/C [23] was 52%, the viability, T/C [24] was 54% and the viability, T/C [25] was 55.3%. For the same molecule, the viability, T/C [26] was 47.8%, the viability, T/C [27] was 54.4% and the viability, T/C [28] was 52.4%. The viability, T/C [29] was 48.3% and the viability, T/C [30] was 48.9%.
